Experimental data reported in US20240376098A1, “METHODS OF TREATMENT USING BCN057, BCN077 AND ANALOGS” (BCN Biosciences L.L.C., priority 2021, published 2024).

Assays:
[1] = tested on: Panc-1 cells; assay: RealTime-Glo Annexin V Apoptosis and Necrosis Assay; assay type: cell-based, human; conditions: serial dilutions, 10 minutes to 6 hours
Method: To validate the involvement of apoptosis in BCN057 induced cell death, the Panc1 cells with/without BCN057 were subjected to Anexin V staining. Anexin V staining was performed up to 6 hours and measured as a function of dose response of BCN057. […] FIG. 2B is a graph of Annexin V Apoptosis and Necrosis Assay in Panc-1 cells. Panc-1 cells were exposed to serial dilutions of BCN057 in the presence or absence of the RealTime-Glo™ Annexin V Apoptosis and Necrosis Assay Reagent. The plate was incubated at 37° C./5% CO2 and luminescence (Annexin V binding) was measured over a period of six hours. […] Apoptosis appeared to increase with increasing concentrations of BCN057.

[2] = molecular target: T1, GSK3b (Homo sapiens, UniProt P49841); assay: Western blot of GSK3b phosphorylation at S-9 in Panc1 cells; assay type: cell-based; conditions: 10 μM BCN057, over time
T1 construct: endogenous in cells; host or cells: Panc-1
Method: (§1) Western Blot: Cells were harvested and lysed in cell lysis buffer on ice for 15 minutes and the lysate was centrifuged at 13,000 rpm at 4° C. for 10 minutes. The supernatant was transferred into a new tube for BCA protein quantification assay (Thermo Fisher Scientific) and the samples were normalized. 3× loading buffer (Cell Signaling) was added the protein sample and boiled for 5 minutes. The samples were used for SDS-PAGE analysis and transferred to nitrocellulose membrane. The membrane was blocked with 5% BSA at room temperature for 1 hour and incubated with primary antibody at 4° C. overnight. The membrane was washed with 1×TBST 5 minutes for 3 times and incubated with horseradish peroxidase-conjugated secondary antibody for 1 hour at room temperature. The protein was visualized by SuperSignal West Pico Stable Peroxide Solution (Thermo Fisher Scientific). The blot was visualized by chemiluminescence using a BioRad Versadoc Imaging System.
(§2) To investigate the role BCN057 may have in the restoration of apoptosis in this cell line, the GSK3b-c-Jun relationship was assessed as it has been directly linked to apoptosis. Others have reported a link with GSK3b and c-Jun and apoptosis along with the fact that […] is over expressed in the oncogenic KRAS phenotype.

[3] = molecular target: T2, GSK3b in non-transformed cell types such as HEK298 (Homo sapiens, UniProt P49841); assay: GSK3b inhibition in non-transformed cells; assay type: cell-based
T2 construct: endogenous in cells; host or cells: HEK298 (so in the source)
Method: as §2

[4] = tested on: LGR5 and BMI1 in Panc-1 cells; assay: qPCR of stem cell markers LGR5 and BMI1 in Panc-1 cells; assay type: cell-based, human; conditions: 10 μm
Method: QPCR: To compare the mRNA levels of BMI1 and LGR5 target genes in Panc-1 cells treated with BCN057 or vehicle. Quantitative PCR (qPCR) was used to measure the expression of the stem cell markers LGR5, and BMI1 which was detected by real-time PCR using the primer pairs listed in Table 1. Total RNA was extracted using TRIzol kit (Invitrogen, CA, USA)
Primers used for qPCR of LGR5 and BMI1 in pancreatic cancer cells Panc-1 treated with 10 μM of BCN057 or vehicle.
Others have implemented BMI1 as a key contributor to chemoresistance and invasiveness which is measurable in Panc-1.

[5] = tested on: Lgr5+ ISCs; assay: Lgr5+ intestinal stem cells in 5FU treated Lgr5-Cre-ERT-GFP mice; assay type: in vivo; conditions: 5FU treated mice receiving BCN057
Method: 5FU is a component of FOLFIRINOX and the active agent metabolized from Capecitabine (Xeloda®). To, examine the effect of BCN057 against chemo induced toxicity in Lgr5+ ISCs, Lgr5-Cre-ERT-GFP mice were pre-treated with 5FU as reported and then subjected to BCN057 treatment.
Stains of GI crypts with green=LGR5+ stem cells. Mice were treated with 5FU and 5FU+BCN057 for 5 days. BCN057 was administered for two extra days after 5FU treatment. Small intestine samples were harvested and stained for LGR5 at 3 days after the last 5FU injection. FIG. 5D is a histogram of the quantitation by % of LGR5+ cells remaining in […] sections at the crypt base showing prevention of 5-FU induced apoptosis in LGR5+ stem cells in GI.

[6] = tested on: PD-1 expression on human T-lymphocytes; assay: Western blot of PD-1 on T-lymphocytes co-cultured with Panc-1 cells; assay type: cell-based; conditions: co-culture with Panc-1, 10 μM, sustained over 12 hours
Method: Cell lines and cell culture: Panc-1 cells were cultured in DMEM medium supplemented with 10% Fetal Bovine Serum and maintained at 37° C.5% CO2. Human Peripheral Blood Pan-T Cells were cultured in serum free T cells expansion media with 10 ng/ml of rhIL-2, T-cell activator and expanded as per the manufacturer instructions. Panc-1 cells and T-Cells were grown and expanded separately in T75 flasks. For co-culture experiments with Panc-1 cell, 2.5 million T-cells per well were plated in the well using a 6 well plate. 2.5 million Panc-1 Cells were plated in the thinsert which was placed into the well of the 6 well plate in order to have the cells physically separated but share media. The cells were incubated for 24 hours at 37° C., 5% CO2. At 24 hours the media was replaced with media containing vehicle, or 10 uM BCN057 and were incubated for the following timepoints: 1 hr, 6 hr, 12 hr, 24 hrs. The Panc-1 cells were removed by gently scraping the cells from the thinsert.
as §1
BCN057 and Immune Checkpoint blockade: An emerging method of treatment for many forms of cancer, including PDAC, is immune checkpoint inhibitors. […]

T2 sequence (P49841 whole entry): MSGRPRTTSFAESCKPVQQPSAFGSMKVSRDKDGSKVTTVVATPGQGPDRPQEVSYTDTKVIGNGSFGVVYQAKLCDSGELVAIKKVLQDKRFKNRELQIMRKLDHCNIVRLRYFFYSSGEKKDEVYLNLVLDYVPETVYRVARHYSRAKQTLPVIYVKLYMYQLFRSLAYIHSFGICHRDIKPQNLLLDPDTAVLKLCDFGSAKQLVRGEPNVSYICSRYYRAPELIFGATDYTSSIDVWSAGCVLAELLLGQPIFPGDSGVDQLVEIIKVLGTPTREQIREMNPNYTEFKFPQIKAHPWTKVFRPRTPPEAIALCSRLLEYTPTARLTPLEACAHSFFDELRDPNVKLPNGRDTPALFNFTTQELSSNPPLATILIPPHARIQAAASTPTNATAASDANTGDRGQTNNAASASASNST
T1 sequence (P49841 whole entry): as above

`COc1ccc2cc(-c3nc4ccc(C)cn4c3NCc3ccco3)c(=O)[nH]c2c1` [BCN057, 3-[(Furan-2-ylmethyl)-amino]-2-(7-methoxy-2-oxo-1,2-dihydro-quinolin-3-yl)-6-methyl-imidazo[1,2-a]pyridin-1-ium] was tested. Which “Apoptosis (Annexin V binding, luminescence)” value [1] did it give?
Its value is “Dose and time dependent increase in apoptosis”.

And the “GSK3b phosphorylation at S-9” value [2]?
The value was “rapid induction of phosphorylation at S-9”.

What about the GSK3b inhibition [3] of the same molecule?
Its GSK3b inhibition is “inhibition was noted”.

And the “Abundance of LGR5 and BMI1 cell populations” value [4]?
Its value is “no significant increase in the abundance”.

What about the “Lgr5+ve ISCs in jejunal section” value [5] of the same molecule?
Its value is “significant presence of Lgr5+ve ISCs”.

What about the “PD-1 expression on human T-lymphocytes” value [6] of the same molecule?
The value was “decreased significantly within the first hour”.
